Data reported in article PMC11742723, “The clinical-stage drug BTZ-043 accumulates in murine tuberculosis lesions and efficiently acts against Mycobacterium tuberculosis” (Nature Communications, 2025).
Values joined by “and” are separate entries in the source; they are usually repeats but may differ in a detail not shown here. Equal values may be shown once. Read-outs that look alike come from different tables or passages of the source.

What was measured:
[1] = tested on: Mtb H37Rv; assay: BTZ-043 dose-fractionation study in Mtb-infected BALB/c mice (lung CFU); type: in vivo, Mycobacterium tuberculosis; settings: for pulmonary CFU counts / mouse: 6 weeks of treatment, individual female mice
[2] = for ng BTZ-043 / mg cryosection: individual cryosections; for BTZ-043 concentration in lung cryosections: Mtb-infected IL-13tg mice, 10 daily doses 250 mg/kg, one mouse each, n=5 cryosections, 250 mg/kg
[3] = tested on: Mtb H37Rv; assay: BTZ-043 treatment for 10 days of Mtb-infected IL-13tg mice (pulmonary CFU); type: in vivo, Mycobacterium tuberculosis
[4] = tested on: Mtb H37Rv; assay: Ziehl-Neelsen staining and histology of centrally necrotizing granulomas in IL-13tg mice; type: in vivo, Mycobacterium tuberculosis; settings: 250 mg/kg/day 10 days, versus untreated
Protocol: Cryosections were fixed with 4% paraformaldehyde/PBS (24 h or 1 h for non-irradiated or irradiated sections, respectively) prior to staining with haematoxylin and eosin (HE), ZN or Heidenhain’s azan trichrome. For immunohistochemical analysis ZN stained cryosections were probed with rabbit polyclonal CD68 antibody (1:200, ab125212, Abcam, Cambridge, UK) which was detected with biotinylated goat anti-rabbit antibody (1:100, 111-065-144, Jackson Immunoresearch, Suffolk, UK)[13]. To visualize lipid droplets, irradiated cryosections were fixed (10% ice-cold formalin/PBS), washed with 60% 2-propanol, and incubated in Oil Red O solution (O0625, Sigma-Aldrich, Taufkirchen, Germany). After washing (60% 2-propanol and water), Gill’s haematoxylin was used for counterstaining. Images were acquired on a BX41 light microscope (Olympus, Hamburg, Germany) using cellSens imaging software (Olympus, Hamburg, Germany) or NIS-Elements software (Nikon, Badhoevedorp, The Netherlands). Post MALDI imaging HE staining was performed with the following protocol[40]: the matrix layer was washed off with MeOH. Rehydrated (2 min in 100%, 70%, 40% EtOH then 100% H2O) samples were submerged in Mayers haematoxylin solution for 12 min followed by 10 min submersion in Na2CO3 (1%) and rinsed with distilled water. Counterstaining was performed by 2-min submersion in 0.5% acidified eosin Y.

[5] = Impact of γ-irradiation on BTZ-043 in spiked liver mimetic tissue cryosections; set-up: species or system mouse; settings: BTZ-043 spiked liver homogenate section (9.7 µg/g)
[6] = IL-13tg mice, 250 mg/kg/day, 10 days

Compound: C[C@H]1COC2(CCN(c3nc(=O)c4cc(C(F)(F)F)cc([N+](=O)[O-])c4s3)CC2)O1 [BTZ-043]
- pulmonary CFU counts / mouse ([1]; 2.5 mg/kg BTZ-043 BID): 20001 CFU counts / mouse and 18001 CFU counts / mouse and 34001 CFU counts / mouse and 55001 CFU counts / mouse
- pulmonary CFU counts / mouse ([1]; 2.5 mg/kg BTZ-043 QD): 50001 CFU counts / mouse and 110001 CFU counts / mouse and 82501 CFU counts / mouse
- pulmonary CFU counts / mouse ([1]; 5 mg/kg BTZ-043 QD): 160001 CFU counts / mouse and 92501 CFU counts / mouse
- CFU reduction compared to the untreated control ([1]; BALB/c lungs, 250 mg/kg QD microcrystalline BTZ-043, 6 weeks): 3.7 log10 CFU
- effect of fractionation of the dose into two administrations (BID vs QD, identical total dose) ([1]; amorphous BTZ-043, 5 to 50 mg/kg/day, 6 weeks): modest, but consistent, trend towards increased mycobactericidal activity
- ng BTZ-043 / mg cryosection ([2]; 2 h after administration, mouse KW116 B9#1 (male)): 1.02 ng / mg cryosection and 0.92 ng / mg cryosection and 0.62 ng / mg cryosection
- ng BTZ-043 / mg cryosection ([2]; 8 h after administration, mouse KW116 B15#1 (female)): 0.27 ng / mg cryosection (2×) and 0.21 ng / mg cryosection and 0.36 ng / mg cryosection
- pulmonary drug concentrations in lung cryosections ([2]; IL-13tg mice, until 8 h after administration): 270 to 1940 ng/g
- BTZ-043 concentration in lung cryosections ([2]; 0.5 h after last administration): 1.32 ± 0.33 ng/mg cryosection
- BTZ-043 concentration in lung cryosections ([2]; 2 h after last administration): 1.10 ± 0.25 ng/mg cryosection
- BTZ-043 concentration in lung cryosections ([2]; 4 h after last administration): 0.79 ± 0.12 ng/mg cryosection and 1.94 ± 0.37 ng/mg cryosection
- BTZ-043 concentration in lung cryosections ([2]; 8 h after last administration): 0.27 ± 0.05 ng/mg cryosection and 0.65 ± 0.06 ng/mg cryosection
- pulmonary BTZ-043 concentrations relative to the MIC ([2]; all time points investigated (0.5-8 h), n=8 mice): substantially higher than the MIC at all time points investigated
- BTZ-043 concentration in the whole section above the MIC ([2]; lung cryosections, 4 and 8 h): at least 100 x
- pulmonary CFU / mouse ([3]; BTZ-043 [250 mg/kg], 2 weeks of therapy, individual mice, female and male, 250 mg/kg): 22635294 CFU / mouse and 34160000 CFU / mouse and 22750000 CFU / mouse and 19564286 CFU / mouse and 20000000 CFU / mouse
- reduction of the bacterial load versus start of treatment ([3]; IL-13tg mice lungs, 250 mg/kg/day, 10 days): 0.9 log10 CFU
- reduction of the bacterial burden ([3]; IL-13tg mice lungs, 250 mg/kg/day, 10 days, versus before treatment): 86%
- bacterial burden after therapy as share of the initial CFU counts [3, 6]: 13.8%
- mean pulmonary bacterial burden after treatment [3, 6]: 4.8 × 10^7 CFU
- pulmonary bacterial burden after therapy ([3]; IL-13tg mice, 250 mg/kg/day, 10 days, mean): 7.69 log10 CFU
- pulmonary CFU counts / mouse ([3]; IL-13tg mice, female, 10 days BTZ-043 250 mg/kg, 250 mg/kg): 22032000 and 27394286
- acid fast bacilli (AFB) within centrally necrotizing granulomas (ZN staining) [4]: most notable reduction in AFB within the layer of foamy macrophages
- ng/mg lung tissue, technical replicate 1 ([5]; irradiation): 5.99 ng/mg and 26 ng/mg and 6.57 ng/mg and 6.4 ng/mg and 5.5 ng/mg and 5.14 ng/mg and 5.58 ng/mg
- ng/mg lung tissue, technical replicate 2 ([5]; irradiation): 6.75 ng/mg and 23.9 ng/mg and 6.81 ng/mg and 5.4 ng/mg and 6.51 ng/mg and 6.42 ng/mg
- Extract concentration, technical replicate 1 ([5]; irradiation, LC-MS/MS): 0.0193 µg/mL and 0.079 µg/mL and 0.0196 µg/mL and 0.0194 µg/mL and 0.0175 µg/mL and 0.0152 µg/mL and 0.0178 µg/mL
- Extract concentration, technical replicate 2 ([5]; irradiation, LC-MS/MS): 0.0218 µg/mL and 0.0727 µg/mL and 0.0207 µg/mL and 0.0172 µg/mL and 0.0193 µg/mL and 0.0205 µg/mL
- ng/mg lung tissue, Mean ([5]; irradiation, mean of technical replicates): 6.37 ng/mg and 6.57 ng/mg and 6.6 ng/mg and 5.45 ng/mg and 5.82 ng/mg and 6 ng/mg
- ng/mg lung tissue, technical replicate 1 ([5]; no irradiation): 6.1 ng/mg and 5.48 ng/mg and 7.3 ng/mg and 4.22 ng/mg and 6.84 ng/mg and 6.88 ng/mg and 6.26 ng/mg
- ng/mg lung tissue, technical replicate 2 ([5]; no irradiation): 6.14 ng/mg and 6.24 ng/mg and 7.55 ng/mg and 4.89 ng/mg and 8.49 ng/mg and 7.42 ng/mg and 7.29 ng/mg
